Laboratory results published in patent US8309739B2, “Chemical compounds” (Syngenta Limited, priority 2005, dated 2012).
Like-named read-outs stand apart in the source and are kept apart here.

Key:
[1] = test system: Myzus persicae (Green Peach Aphid); assay: Myzus persicae test, roots of infested pea seedlings placed in test solution; type: in vivo; details: 144 h, read-out: control of Myzus persicae
From the text: Myzus persicae (Green Peach Aphid):
Roots of pea seedlings, infested with an aphid population of mixed ages, were placed directly in the test solutions of 24 ppm. 6 days after introduction, samples were checked for mortality.

[2] = test system: Heliothis virescens (Tobacco Budworm); assay: Heliothis virescens egg/larva test on artificial diet in 24-well microtiter plate; type: in vivo; details: 96 h, 200 ppm by pipetting on eggs (0-24 h old) on artificial diet, 4 days, egg mortality, larval mortality, growth regulation
From the text: Heliothis virescens (Tobacco Budworm):

[3] = roots of infested pea seedlings in test solutions of 24 ppm, 6 days, mortality

Compound	melting point	pest or weed control at 200 ppm [2]	also measured
Fc1ccc2c(c1)CCC2NC1=NCCS1 (stereo not shown)	136 °C		
Cc1ccc2c(c1)C(NC1=NCCS1)CC2 (stereo not shown)	181 °C		
Oc1cccc2c1CCC2NC1=NCCS1 (stereo not shown)	191 °C		
Fc1ccc2c(c1F)CCC2NC1=NCCS1 (stereo not shown)	161 °C		
CC1(C)CC(NC2=NCCS2)c2ccccc21 (stereo not shown)	60 to 66 °C		
COc1cc2c(cc1C)CCC2NC1=NCCS1 (stereo not shown)	152 to 153 °C		
Fc1c(F)c(F)c2c(c1F)CCC2NC1=NCCS1 (stereo not shown)	165 °C		
CCc1cc(F)c2c(c1)C(NC1=NCCS1)CC2 (stereo not shown)	148 to 149 °C		
COC(=O)c1cccc2c1CCC2NC1=NCCS1 (stereo not shown)	131 °C		
Ic1cccc2c1CCC2NC1=NCCS1 (stereo not shown)	170 to 171 °C		
O=Cc1cccc2c1CCC2NC1=NCCS1 (stereo not shown)	142 to 143 °C		
Cc1cccc2c1CCC2NC1=NCCS1 (stereo not shown) [Compound 2.006, (4,5-Dihydro-thiazol-2-yl)-(4-methyl-indan-1-yl)-amine]			pest or weed control at 24 ppm [1]: ≥ 80%
Fc1cccc2c1CCC2NC1=NCCS1 (stereo not shown) [Compound 2.019]		≥ 80%	pest or weed control at 24 ppm [1, 3]: ≥ 80%
Clc1cccc2c1CCC2NC1=NCCS1 (stereo not shown) [Compound 2.020]		≥ 80%	
Fc1cc(F)c2c(c1)C(NC1=NCCS1)CC2 (stereo not shown) [Compound 2.024]		≥ 80%	pest or weed control at 24 ppm [1, 3]: ≥ 80%
Fc1ccc(F)c2c1CCC2NC1=NCCS1 (stereo not shown) [Compound 2.025]		≥ 80%	pest or weed control at 24 ppm [1, 3]: ≥ 80%
Fc1cc(Br)cc2c1CCC2NC1=NCCS1 (stereo not shown) [Compound 2.026]		≥ 80%	
Fc1cc2c(c(F)c1F)CCC2NC1=NCCS1 (stereo not shown) [Compound 2.028]		≥ 80%	
Fc1cc(F)c2c(c1F)C(NC1=NCCS1)CC2 (stereo not shown) [Compound 2.030]		≥ 80%	pest or weed control at 24 ppm [1, 3]: ≥ 80%
Cc1cc(F)c2c(c1)C(NC1=NCCS1)CC2 (stereo not shown) [Compound 2.031]		≥ 80%	pest or weed control at 24 ppm [1, 3]: ≥ 80%

Compound	melting point	pest or weed control at 200 ppm [2]	also measured
CCCC1(CCC)Cc2ccccc2C1NC1=NCCS1 (stereo not shown) [Compound 2.034]	101 to 103 °C		
c1ccc(Oc2cccc3c2CCC3NC2=NCCS2)cc1 (stereo not shown) [Compound 2.041]	143 to 146 °C		
O=[N+]([O-])c1cccc2c1CCC2NC1=NCCS1 (stereo not shown) [Compound 2.042]	144 to 145 °C		
Brc1ccc2c(c1)C(NC1=NCCS1)CC2 (stereo not shown) [Compound 2.049]		≥ 80%	
Fc1cccc2c1C(NC1=NCCS1)CC2 (stereo not shown) [Compound 2.052]		≥ 80%	
FC(F)c1cccc2c1CCC2NC1=NCCS1 (stereo not shown) [Compound 2.058]		≥ 80%	pest or weed control at 24 ppm [1, 3]: ≥ 80%
Fc1cccc2c1CC(F)C2NC1=NCCS1 (stereo not shown) [Compound 2.067]		≥ 80%	pest or weed control at 24 ppm [1, 3]: ≥ 80%
ON(C1=NCCS1)C1CCc2c(Cl)cccc21 (stereo not shown) [Compound 7.001]	115 to 117 °C		
CC(C)(C)OC(=O)NN(C1=NCCS1)C1CCc2ccccc21 (stereo not shown) [Compound 7.002]	63 to 64 °C		
CC(=O)N(C(C)=O)N(C1=NCCS1)C1CCc2ccccc21 (stereo not shown) [Compound 7.004]	91 to 92 °C		
ON(C1=NCCS1)C1CCc2c(F)cccc21 (stereo not shown) [Compound 7.006]			pest or weed control at 24 ppm [1, 3]: ≥ 80%
Cc1cccc2c1CCC2N(O)C1=NCCS1 (stereo not shown) [Compound 7.010]		≥ 80%	
NN(C1=NCCS1)C1CCc2ccccc21 (stereo not shown) [Compound 7.013]	103 to 105 °C		
N#CN1CCSC1=NC1CCc2ccccc21 (stereo not shown) [Compound 8.017, 2-(Indan-1-ylimino)-thiazolidine-3-carbonitrile]		≥ 80%	
CC(C)C(=O)N1CCS/C1=N\C1CCc2ccccc21 (stereo not shown) [Compound 10.006]			pest or weed control at 24 ppm [1, 3]: ≥ 80%
CCC(=O)N1CCS/C1=N\C1CCc2ccccc21 (stereo not shown) [Compound 10.011]		≥ 80%	pest or weed control at 24 ppm [1, 3]: ≥ 80%
COC(=O)N1CCS/C1=N\C1CCc2ccccc21 (stereo not shown) [Compound 10.015]		≥ 80%	pest or weed control at 24 ppm [1, 3]: ≥ 80%
CCOC(=O)N1CCS/C1=N\C1CCc2ccccc21 (stereo not shown) [Compound 10.020]		≥ 80%	
CC(=O)N1CCS/C1=N\C1CCc2ccccc21 (stereo not shown) [Compound 10.025]		≥ 80%	
CC(=O)OC1Cc2ccccc2C1NC1=NCCS1 (stereo not shown) [Compound 12.008]		≥ 80%	
